“Also recorded” adds a separate entry of the source. Where two headings read alike, the source gives them in different places.
Key:
[1] = test system: Fasciola hepatica Newly Excysted Juveniles (NEJs); experiment: whole organism screen of Fasciola hepatica NEJs: microscopic scoring of phenotype and motility (viability)
Procedure: The effect of test compounds in a whole organism screen of Fasciola hepatica Newly Excysted Juveniles (NEJs) was investigated along with DMSO (− control), triclabendazole (10 μM, + control) and media) and their anti-flukicidal activity was assessed at both 24 and 72 hours.
(§1) The viability detection of Fasciola hepatica NEJs is based on qualitative microscopic evaluation of motility and phenotype and additionally measuring propidium iodide to make use of the differential uptake of fluorophores (such as propidium iodide) by living organisms.
(§2) NEJs were prepared according to Edwards et al.. Approximately 12 NEJs/compound were cultivated. NEJ/compound co-cultures were placed at 37 °C in a humidified atmosphere containing 5% CO2. NEJ/compound co-cultures were incubated for a total of 72 hrs. At 24h, an assessment of the gross phenotype was made for all NEJ/compound co-cultures and bright field images were captured. At 72 h both phenotype and motility were quantified in comparison to live DMSO controls based on a microscopic scoring method detailed in [1] as well as summarised in Table 1 below.

[2] = test system: common liver fluke (Fasciola hepatica); settings: cited from earlier work; for effectiveness against liver fluke stages: mature flukes and immature stages (early immature 1 to 6 weeks old, immature 6 to 9 weeks old)
[3] = test system: Fasciola hepatica Newly Excysted Juveniles (NEJs); experiment: Propidium Iodide (PI) uptake by Fasciola hepatica NEJs in co-culture with compound
Procedure: as §1, §2
Propidium Iodide (PI) was then added to the NEJ/compound co-cultures (to a final concentration of […]) and these co-cultures were imaged under both Bright field and Texas Red settings.

[4] = 72 h, in comparison to live DMSO controls, triclabendazole + control at 10 μM, concentration of test compounds not given
[5] = overall conclusion from viability, phenotype/motility and PI

Row | Compound | Score (mean) motility 1 to 5 (highest) [1, 4] | Score (mean) phenotype 1 to 6 (highest) [1, 4] | active against Fasciola hepatica NEJs during the viability assessment ([1]; after 24 hours) | phenotype change and impaired motility significantly different to DMSO ([1]; after 72 hours) | effectiveness against liver fluke stages [2] | significant activity against juvenile stages of Fasciola hepatica [1, 5] | other results
1 | Cn1nc(C(F)(F)C(F)(F)F)c(C(F)(F)F)c1-n1cc(-c2ccc(Cl)c(C(=O)NC3(C#N)CC3)c2)cn1 [Compound 10, 2-chloro-N-(1-cyanocyclopropyl)-5-[1-[2-methyl-5-(1,1,2,2,2-pentafluoroethyl)-4-(trifluoromethyl)pyrazol-3-yl]pyrazol-4-yl]benzamide] | 4.8 | 3.8 | active | both a phenotype change and impaired motility significantly different to DMSO | – | – | –
2 | O=C(Nc1cc(Cl)cc(Cl)c1O)c1c(O)c(Cl)cc(Cl)c1Cl [oxyclozanide] | – | – | – | – | only effective against the mature flukes and not against the immature stages; also recorded: effective only against mature flukes | – | –
3 | CSc1nc2cc(Cl)c(Oc3cccc(Cl)c3Cl)cc2[nH]1 [Triclabendazole] | 5.0 | 5.8 | – | – | effective against mature stages of the common liver fluke (Fasciola hepatica) as well as all immature stages | – | effectiveness against early immature liver fluke larvae ([2]; early immature larvae (1 to 6 weeks old)): effective against all early immature liver fluke larvae
4 | C#CCNC(=O)CNC(=O)c1sc(C2=NO[C@](c3cc(Cl)c(Cl)c(Cl)c3)(C(F)(F)F)C2)c2c1CCCC2 [Compound 8] | 5.0 | 5.7 | active | both a phenotype change and impaired motility significantly different to DMSO | – | significant activity | –
5 | C#CCNC(=O)CNC(=O)c1sc(C2=NO[C@@](c3cc(Cl)c(Cl)c(Cl)c3)(C(F)(F)F)C2)cc1C [Compound 6] | 5.0 | 5.6 | active | both a phenotype change and impaired motility significantly different to DMSO | – | significant activity | –
6 | N#Cc1cc(I)c(O)c([N+](=O)[O-])c1 [nitroxynil] | – | – | – | – | only effective against the mature flukes and not against the immature stages; also recorded: effective against fluke from 8 weeks post infection | – | –
7 | Cc1cc(C(C#N)c2ccc(Cl)cc2)c(Cl)cc1NC(=O)c1cc(I)cc(I)c1O (centres unmarked) [closantel] | – | – | – | – | only effective against the mature flukes and not against the immature stages | – | effectiveness against 3-8 weeks old flukes ([2]; 3-8 weeks old flukes): partially effective; effectiveness against mature flukes ([2]; mature flukes): fully effective
8 | Cc1cc(C2=NO[C@@](c3cc(Cl)c(Cl)c(Cl)c3)(C(F)(F)F)C2)sc1C(=O)NCC(=O)NCC(F)(F)F (stereo in doubt) [Compound 4, 3-methyl-N-(2-oxo-2-((2,2,2-trifluoroethyl)amino)ethyl)-5-[5-(3,4,5-trichlorophenyl)-5-(trifluoromethyl)-4,5-dihydroisoxazol-3-yl]thiophene-2-carboxamide] | – | – | – | – | – | – | Score (mean) motility 1 to 5 (highest) [1]: 5.0; Score (mean) phenotype 1 to 6 (highest) [1]: 5.7; active against Fasciola hepatica NEJs during the viability assessment [1]: active; phenotype change and impaired motility significantly different to DMSO [1]: both a phenotype change and impaired motility significantly different to DMSO; significant activity against juvenile stages of Fasciola hepatica [1]: significant activity; Propidium Iodide positivity [3]: > 90%
9 | Cc1cc(C2=NOC(c3cc(Cl)cc(Cl)c3)(C(F)(F)F)C2)ccc1C(=O)NCC(=O)NCC(F)(F)F (centres unmarked) [Compound 1, 4-[5-(3,5-dichlorophenyl)-5-trifluoromethyl-4,5-dihydroisoxazol-3-yl]-2-methyl-N-[(2,2,2-trifluoro-ethylcarbamoyl)-methyl]-benzamide] | – | – | – | – | – | – | Score (mean) motility 1 to 5 (highest) [1]: 5.0; Score (mean) phenotype 1 to 6 (highest) [1]: 5.5; active against Fasciola hepatica NEJs during the viability assessment [1]: active; phenotype change and impaired motility significantly different to DMSO [1]: both a phenotype change and impaired motility significantly different to DMSO; significant activity against juvenile stages of Fasciola hepatica [1]: significant activity
10 | O=C(CNC(=O)c1ccc(C2=NOC(c3cc(Cl)cc(C(F)(F)F)c3)(C(F)(F)F)C2)c2ccccc12)NCC(F)(F)F (centres unmarked) [Compound 3, 4-[5-[3-chloro-5-(trifluoromethyl)phenyl]-4,5-dihydro-5-(trifluoromethyl)-3-isoxazolyl]-N-[2-oxo-2-[(2,2,2-trifluoroethyl)amino]ethyl]-1-naphthalene-carboxamide] | 5.0 | 5.7 | active | both a phenotype change and impaired motility significantly different to DMSO | – | significant activity | –
11 | CCCSc1ccc2nc(NC(=O)OC)[nH]c2c1 [albendazole] | – | – | – | – | only effective against the mature flukes and not against the immature stages; also recorded: effective only against mature flukes | – | –
12 | Nc1cc(C(Cl)=C(Cl)Cl)c(S(N)(=O)=O)cc1S(N)(=O)=O [clorsulon] | – | – | – | – | effective only against mature flukes | – | –
13 | Cc1cc(C2=NSC(c3cc(Cl)cc(Cl)c3)(C(F)(F)F)C2)ccc1C(=O)NCC(=O)NCC(F)(F)F (centres unmarked) [Compound 9] | 5.0 | 5.7 | active | both a phenotype change and impaired motility significantly different to DMSO | – | significant activity | –
14 | CS(=O)(=O)CC(=O)N1CC2(C1)OCc1cc(C3=NO[C@@](c4cc(Cl)c(F)c(Cl)c4)(C(F)(F)F)C3)ccc12 (stereo in doubt) [Compound 5, 1-(5′-(5-(3,5-dichloro-4-fluorophenyl)-5-(trifluoromethyl)-4,5-dihydroisoxazol-3-yl)-3′H-spiro[azetidine-3,1′-isobenzofuran]-1-yl)-2-(methylsulfonyl)ethan-1-one] | 5.0 | 5.7 | active | both a phenotype change and impaired motility significantly different to DMSO | – | significant activity | –
15 | C#CCNC(=O)CNC(=O)c1sc(C2=NO[C@@](c3cc(Cl)c(Cl)c(Cl)c3)(C(F)(F)F)C2)c2c1CCCC2 [Compound 7] | 4.8 | 5.7 | active | both a phenotype change and impaired motility significantly different to DMSO | – | significant activity | –
16 | Cc1cc(C2=NO[C@@](c3cc(Cl)cc(Cl)c3)(C(F)(F)F)C2)ccc1C(=O)NCC(=O)NCC(F)(F)F [Compound 2] | – | – | – | – | – | – | Score (mean) motility 1 to 5 (highest) [1]: 5.0; Score (mean) phenotype 1 to 6 (highest) [1]: 5.8; active against Fasciola hepatica NEJs during the viability assessment [1]: active; phenotype change and impaired motility significantly different to DMSO [1]: both a phenotype change and impaired motility significantly different to DMSO; significant activity against juvenile stages of Fasciola hepatica [1]: significant activity; Propidium Iodide positivity [3]: > 90%

Source: US20260355163A1, “TREATMENT OF FASCIOLOSIS” (INTERVET INC., priority 2022, published 2026)
